Data set [1] is described as follows: Drug loading onto IO-MMMs (UV-vis). It is filed as physicochemical. The note with it: for amount of drug loaded / loading efficiency: maximal loading onto IO-MMMs; for loading efficiency: absorption spectroscopy. Here is the method: 1 mL aqueous dispersion of IO-MMMs (1.0 mg/mL) and aqueous drug solutions (250 μg/mL) were gently shaken on a rotary shaker for 36 h to enable maximal drug loading. The particle dispersions were then isolated via centrifugation (4500 rpm, 10 min), washed repeatedly with water until no drug was detected in the supernatant by UV-vis, and finally redispersed in water to form stable aqueous dispersions of drug@IO-MMMs. In case of Tam and Daun loading, Tam was first loaded followed by Daun to afford Daun/Tam@IO-MMMs (165 μg/mL Tam; 235 μg/mL Daun). Loading efficiencies were determined by UV-Vis spectroscopy as depicted below. […] The loading efficiency was calculated as: Loading Efficiency=(W1/W0)×100, where W1 is the amount of drug loaded onto the particles, and W0 is the amount of drug in the initial solution. The amount of drug loaded onto IO-MMMs was calculated from the difference between the initial drug concentration and the drug concentration left in the supernatant.

Data set [2] in a line: In vitro drug release in PBS buffer at two pH values. It is filed as physicochemical. The note with it: from IO-MMM, slightly acidic pH of 4.5, after 48 h, 37° C. Here is the method:
In a typical study, 5 mg of drug@IO-MMMs were suspended in 1 mL PBS buffer at two different pH values (pH=7.4 and pH=4.5) and gently rotated at 37° C. in an oven provided with a precise control in the temperature within 0.01° C. The concentration of drugs in the supernatant was determined at fixed time intervals by UV-vis spectroscopy. At specific time points, supernatant aliquots obtained by centrifugation were taken from each tube, measured and returned to their respective tubes after UV-vis measurements. The drug concentration could be directly calculated from the measured absorbance. Triplicate aliquots were run for each time interval, and average values plotted. The percent drug release was calculated using the equation below: % Drug Release=(Abs(t) of released drug/Abs(t0))×100.

For data set [3] the following is noted: estimated; cited from earlier work.

Bounds are passed on as bounds.

In the case of `CC/C(=C(\c1ccccc1)c1ccc(OCCN(C)C)cc1)c1ccccc1` [Tam, Tamoxifen], in data set [1], the “amount of drug loaded” value is ≤ 165 μg/mg of particles and the loading efficiency is at most 83%. For the same compound, in data set [1] (onto IO-MMMs), the “loading efficiencies depending on the initial drug concentrations used” value is 66-83%. Further, the total drug released in data set [2] was about 80%.

`COc1cccc2c1C(=O)c1c(O)c3c(c(O)c1C2=O)C[C@@](O)(C(=O)CO)C[C@@H]3O[C@H]1C[C@H](N)[C@H](O)[C@H](C)O1` [Dox, Doxorubicin]: the “amount of drug loaded” value in data set [1] is ≤ 227 μg/mg of particles. Besides, the total drug released result in data set [2] is recorded as “about 40%”. Further, the molecular size in data set [3] is on record as about 1.37 nm.

Consider `COc1cccc2c1C(=O)c1c(O)c3c(c(O)c1C2=O)C[C@@](O)(C(C)=O)C[C@@H]3O[C@H]1C[C@H](N)[C@H](O)[C@H](C)O1` [Daun, Daunorubicin], for which, in data set [1], the “amount of drug loaded” value was ≤ 235 μg/mg of particles and the loading efficiency is at most 94%. The total drug released in data set [2] is about 50%.
